Measured values reported in ChEMBL document CHEMBL1759972, “Phenoxyacetic acids as PPARδ partial agonists: synthesis, optimization, and in vivo efficacy” (Bioorg Med Chem Lett, 2011).

Columns and labels:
[1] = target: T1, Peroxisome proliferator-activated receptor delta (Homo sapiens, UniProt Q03181)
T1 sequence (Q03181 whole entry): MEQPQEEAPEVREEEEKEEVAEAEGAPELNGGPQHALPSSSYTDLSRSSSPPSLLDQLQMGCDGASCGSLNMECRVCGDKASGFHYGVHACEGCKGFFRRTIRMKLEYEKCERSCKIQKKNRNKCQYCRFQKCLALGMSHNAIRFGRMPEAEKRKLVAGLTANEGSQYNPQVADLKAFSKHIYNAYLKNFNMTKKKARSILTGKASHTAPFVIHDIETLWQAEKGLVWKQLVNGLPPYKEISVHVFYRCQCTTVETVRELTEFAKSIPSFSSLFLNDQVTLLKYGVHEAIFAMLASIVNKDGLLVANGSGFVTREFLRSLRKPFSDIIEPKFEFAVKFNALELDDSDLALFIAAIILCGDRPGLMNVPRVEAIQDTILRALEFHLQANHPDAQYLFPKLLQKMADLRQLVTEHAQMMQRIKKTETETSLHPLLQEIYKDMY
Description: Displacement of [3H]GW 2433 from human PPARdelta by scintillation proximity assay

[2] = target: T2, Peroxisome proliferator-activated receptor alpha (Homo sapiens, UniProt Q07869); test: Displacement of [3H]GW 2433 from human PPARalpha by scintillation proximity assay
T2 sequence (Q07869 whole entry): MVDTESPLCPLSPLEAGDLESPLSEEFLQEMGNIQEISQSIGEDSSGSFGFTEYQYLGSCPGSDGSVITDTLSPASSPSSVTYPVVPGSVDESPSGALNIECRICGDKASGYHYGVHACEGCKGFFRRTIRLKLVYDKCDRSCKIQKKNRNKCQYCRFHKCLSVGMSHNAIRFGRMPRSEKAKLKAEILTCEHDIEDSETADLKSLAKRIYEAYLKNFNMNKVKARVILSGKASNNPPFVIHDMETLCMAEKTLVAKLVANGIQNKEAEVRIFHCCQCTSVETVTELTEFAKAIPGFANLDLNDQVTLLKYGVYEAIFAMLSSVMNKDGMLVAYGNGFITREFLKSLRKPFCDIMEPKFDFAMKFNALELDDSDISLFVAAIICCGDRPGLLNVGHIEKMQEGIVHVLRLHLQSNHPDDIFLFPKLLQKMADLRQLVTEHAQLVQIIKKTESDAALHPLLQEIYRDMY

[3] = target: T3, Peroxisome proliferator-activated receptor gamma (Homo sapiens, UniProt P37231)
T3 sequence (P37231 whole entry): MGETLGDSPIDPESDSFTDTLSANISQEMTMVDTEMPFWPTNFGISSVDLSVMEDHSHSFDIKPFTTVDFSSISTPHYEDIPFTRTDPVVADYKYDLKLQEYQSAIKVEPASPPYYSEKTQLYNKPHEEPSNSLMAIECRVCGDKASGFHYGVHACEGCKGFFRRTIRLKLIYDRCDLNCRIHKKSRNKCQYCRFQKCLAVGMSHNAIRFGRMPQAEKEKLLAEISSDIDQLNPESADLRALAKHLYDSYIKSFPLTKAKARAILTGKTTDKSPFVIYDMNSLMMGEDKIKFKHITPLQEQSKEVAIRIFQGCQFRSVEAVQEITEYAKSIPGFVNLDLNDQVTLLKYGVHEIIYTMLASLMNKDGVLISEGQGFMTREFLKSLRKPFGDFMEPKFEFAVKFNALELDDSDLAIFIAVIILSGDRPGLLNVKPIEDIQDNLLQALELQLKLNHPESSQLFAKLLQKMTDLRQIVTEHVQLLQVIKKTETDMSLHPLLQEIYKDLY
Description: Displacement of [3H]GW 2433 from human PPARgamma by scintillation proximity assay

[4] = target: T1, Peroxisome proliferator-activated receptor delta; remark: listed apart in the source
Description: Partial agonist activity at human PPARdelta expressed in african green monkey CV1 cells transfected with Gal4 assessed as beta-galactosidase activity by transactivation assay

`CCCCN(c1c(C)cc(C)c(-c2ccc(Cl)cc2)c1C)S(=O)(=O)c1ccc(OC(C)C(=O)O)c(C)c1C` (stereo not drawn) gave an IC50 [1] of 10000 nM, an IC50 [2] of 20000 nM and an IC50 [3] of 7940 nM. For the same compound, the EC50 [4] was > 10000 nM.
In the case of `CCCCN(c1cccc(-c2ccc(Cl)cc2)c1C)S(=O)(=O)c1ccc(OC(C)C(=O)O)c(F)c1Cl` (stereo not drawn), the IC50 [1] is reported as 251 nM, the IC50 [2] is reported as 12600 nM and the EC50 [4] is reported as 398 nM.
With `CCCCN(c1cccc(-c2ccc(OC(F)(F)F)cc2)c1C)S(=O)(=O)c1ccc(OC(C)C(=O)O)c(C)c1C` (stereo not drawn) the IC50 [1] was 79.4 nM, the IC50 [2] was 10000 nM and the EC50 [4] was 39.8 nM.
Compound `Cc1c(-c2ccc(Cl)cc2)cccc1N(CC1CCC1)S(=O)(=O)c1ccc(OC(C)C(=O)O)c(C)c1C` (stereo not drawn) has an IC50 [1] of 1000 nM, an IC50 [2] of 12600 nM and an EC50 [4] of 501 nM.
Work on `CCCCN(c1cc(-c2ccc(Cl)cc2)ccc1C)S(=O)(=O)c1ccc(OC(C)C(=O)O)c(C)c1C` (stereo not drawn) yielded an IC50 [1] of 1580 nM, an IC50 [2] of 10000 nM and an IC50 [3] of 6310 nM. For the same compound, the EC50 [4] was 794 nM.
`CCCCN(c1cccc(-c2ccc(Cl)cc2)c1C)S(=O)(=O)c1ccc(OC(CC)C(=O)O)c(C)c1C` (stereo not drawn) gave an IC50 [1] of 63.1 nM, an IC50 [2] of 15800 nM and an EC50 [4] of 126 nM.
Work on `CCCCCN(c1cccc(-c2ccc(Cl)cc2)c1C)S(=O)(=O)c1ccc(OC(C)C(=O)O)c(C)c1C` (stereo not drawn) yielded an IC50 [1] of 794 nM, an IC50 [2] of 15800 nM and an EC50 [4] of 398 nM.
`CCCCN(c1cccc(-c2ccccc2Cl)c1C)S(=O)(=O)c1ccc(OC(C)C(=O)O)c(C)c1C` (stereo not drawn) gave an IC50 [1] of 1580 nM, an IC50 [2] of 12600 nM and an EC50 [4] of 2000 nM.
`CCCCN(c1cccc(-c2ccc(Cl)cc2)c1C)S(=O)(=O)c1ccc(OC(C)C(=O)O)c(F)c1OC` (stereo not drawn) gave an IC50 [2] of 15800 nM.
In the case of `CCCCN(c1cccc(-c2ccc(Cl)cc2)c1C)S(=O)(=O)c1ccc(OC(CCC)C(=O)O)c(C)c1C` (stereo not drawn), the IC50 [1] is reported as 158 nM, the IC50 [2] is reported as 10000 nM and the EC50 [4] is reported as > 10000 nM.
In the case of `CCCCN(c1cc(-c2ccc(Cl)cc2)c(F)cc1F)S(=O)(=O)c1ccc(OC(C)C(=O)O)c(C)c1C` (stereo not drawn), the IC50 [1] is reported as 3160 nM, the IC50 [2] is reported as 10000 nM and the IC50 [3] is reported as 1580 nM. The EC50 [4] was 1260 nM.
In the case of `COCCN(c1cccc(-c2ccc(Cl)cc2)c1C)S(=O)(=O)c1ccc(OC(C)C(=O)O)c(C)c1C` (stereo not drawn), the IC50 [1] is reported as 501 nM, the IC50 [2] is reported as > 20000 nM and the EC50 [4] is reported as 501 nM.
Compound `CCCCN(c1cccc(-c2ccc(Cl)cc2)c1Cl)S(=O)(=O)c1ccc(OC(C)C(=O)O)c(C)c1C` (stereo not drawn) has an IC50 [1] of 7.94 nM, an IC50 [2] of 12600 nM and an EC50 [4] of 10 nM.
`CCCCN(c1cc(-c2ccc(Cl)cc2)ccc1OC(F)(F)F)S(=O)(=O)c1ccc(OC(C)C(=O)O)c(C)c1C` (stereo not drawn) showed an IC50 [1] of 3160 nM, an IC50 [2] of 12600 nM and an IC50 [3] of 10000 nM. For the same compound, the EC50 [4] was 1000 nM.
`Cc1c(-c2ccc(Cl)cc2)cccc1N(CC1CC1)S(=O)(=O)c1ccc(OC(C)C(=O)O)c(C)c1C` (stereo not drawn) showed an IC50 [1] of 794 nM, an IC50 [2] of 15800 nM and an EC50 [4] of 794 nM.
`CCCCN(c1cccc(-c2cccc(Cl)c2)c1C)S(=O)(=O)c1ccc(OC(C)C(=O)O)c(C)c1C` (stereo not drawn) was tested, and the IC50 [1] was 631 nM, the IC50 [2] was 7940 nM and the EC50 [4] was 501 nM.
For `CCCCN(c1cccc(-c2ccc(Cl)cc2)c1C)S(=O)(=O)c1ccc(OC(C)C(=O)O)c(Cl)c1Cl` (stereo not drawn), the IC50 [1] was 79.4 nM, the IC50 [2] was 10000 nM and the EC50 [4] was 63.1 nM.
In the case of `CCCCN(c1cccc(-c2ccc(Cl)cc2)c1OC)S(=O)(=O)c1ccc(OC(C)C(=O)O)c(C)c1C` (stereo not drawn), the IC50 [1] is reported as 25.1 nM, the IC50 [2] is reported as 12600 nM and the EC50 [4] is reported as 20 nM.
For `CCCCN(c1cccc(-c2ccc(Cl)cc2)c1C)S(=O)(=O)c1ccc(OC(C)C(=O)O)c(OC)c1OC` (stereo not drawn), the IC50 [1] was 5010 nM, the IC50 [2] was > 25100 nM and the EC50 [4] was > 10000 nM.
`Cc1cc(S(=O)(=O)N(CCC(C)C)c2cccc(-c3ccc(C(F)(F)F)cc3)c2)ccc1OCC(=O)O` gave an IC50 [1] of 1260 nM, an IC50 [2] of 15800 nM and an IC50 [3] of 5010 nM. The EC50 [4] was 158 nM.
For `CCCCN(c1cccc(-c2ccc(Cl)cc2)c1C)S(=O)(=O)c1ccc(O[C@@H](C)C(=O)O)c(C)c1C`, the IC50 [1] was 631 nM, the IC50 [2] was 15800 nM and the EC50 [4] was 316 nM.
For `CCCCN(c1cccc(-c2ccc(Cl)cc2)c1C)S(=O)(=O)c1ccc(OC(C)C(=O)O)c(F)c1F` (stereo not drawn), the IC50 [1] was 631 nM and the IC50 [2] was 10000 nM.
Compound `CCCCN(c1cccc(-c2ccc(C(F)(F)F)cc2)c1C)S(=O)(=O)c1ccc(OC(C)C(=O)O)c(C)c1C` (stereo not drawn) has an IC50 [1] of 15.8 nM and an IC50 [2] of 15800 nM.
Compound `CCCCN(c1cccc(-c2ccc(Cl)c(Cl)c2)c1C)S(=O)(=O)c1ccc(OC(C)C(=O)O)c(C)c1C` (stereo not drawn) has an IC50 [1] of 126 nM, an IC50 [2] of 20000 nM and an EC50 [4] of 126 nM.
`CCCCN(c1ccc(C)c(-c2ccc(Cl)cc2)c1)S(=O)(=O)c1ccc(OC(C)C(=O)O)c(C)c1C` (stereo not drawn) was tested, and the IC50 [1] was 398 nM, the IC50 [2] was 20000 nM and the IC50 [3] was 3160 nM. It also gave an EC50 [4] of 126 nM.
`CCCCN(c1cccc(-c2ccc(Cl)cc2)c1C)S(=O)(=O)c1ccc(OC(C)C(=O)O)c(OC)c1Cl` (stereo not drawn) gave an IC50 [1] of 158 nM, an IC50 [2] of 15800 nM and an EC50 [4] of 316 nM.
`Cc1c(-c2ccc(Cl)cc2)cccc1N(CCCC(F)(F)F)S(=O)(=O)c1ccc(OC(C)C(=O)O)c(C)c1C` (stereo not drawn) showed an IC50 [1] of 1260 nM, an IC50 [2] of 20000 nM and an EC50 [4] of 2000 nM.
For `CCCN(c1cccc(-c2ccc(Cl)cc2)c1C)S(=O)(=O)c1ccc(OC(C)C(=O)O)c(C)c1C` (stereo not drawn), the IC50 [1] was 126 nM, the IC50 [2] was 20000 nM and the EC50 [4] was 79.4 nM.
Work on `CCCCN(c1ccc(F)c(-c2ccc(Cl)cc2)c1)S(=O)(=O)c1ccc(OC(C)C(=O)O)c(C)c1C` (stereo not drawn) yielded an IC50 [1] of 200 nM, an IC50 [2] of 20000 nM and an IC50 [3] of 2000 nM. The EC50 [4] was 39.8 nM.
`CCCCN(c1cccc(-c2ccc(Cl)cc2)c1C)S(=O)(=O)c1ccc(OCC(=O)O)c(C)c1C` gave an IC50 [1] of 12.6 nM, an IC50 [2] of 6310 nM and an IC50 [3] of 2510 nM. For the same compound, the EC50 [4] was 2 nM.
Work on `CCCCN(c1cc(-c2ccc(Cl)cc2)c(F)cc1C)S(=O)(=O)c1ccc(OC(C)C(=O)O)c(C)c1C` (stereo not drawn) yielded an IC50 [1] of 5010 nM, an IC50 [2] of 10000 nM and an IC50 [3] of 7940 nM. It also gave an EC50 [4] of 3160 nM.
Work on `CCCCN(c1cccc(-c2ccc(Cl)cc2)c1C)S(=O)(=O)c1ccc(O[C@H](C)C(=O)O)c(C)c1C` yielded an IC50 [1] of 25.1 nM, an IC50 [2] of 20000 nM and an EC50 [4] of 12.6 nM.
Work on `CCCCN(c1cccc(-c2ccc(OC)cc2)c1C)S(=O)(=O)c1ccc(OC(C)C(=O)O)c(C)c1C` (stereo not drawn) yielded an IC50 [1] of 100 nM, an IC50 [2] of 15800 nM and an EC50 [4] of 39.8 nM.
For `CCCCC(Oc1ccc(S(=O)(=O)N(CCCC)c2cccc(-c3ccc(Cl)cc3)c2C)c(C)c1C)C(=O)O` (stereo not drawn), the IC50 [1] was 158 nM, the IC50 [2] was 10000 nM and the EC50 [4] was > 10000 nM.
`CCCCN(c1cc(-c2ccc(Cl)cc2)cc(C(F)(F)F)c1)S(=O)(=O)c1ccc(OC(C)C(=O)O)c(C)c1C` (stereo not drawn) gave an IC50 [1] of 63.1 nM, an IC50 [2] of 12600 nM and an IC50 [3] of 5010 nM. For the same compound, the EC50 [4] was 100 nM.
With `CCCCN(c1cccc(-c2ccc(Cl)cc2)c1C)S(=O)(=O)c1ccc(OC(C)C(=O)O)c(C2CCCCC2)c1` (stereo not drawn) the IC50 [1] was 15.8 nM, the IC50 [2] was 15800 nM and the IC50 [3] was 7940 nM. For the same compound, the EC50 [4] was 15.8 nM.
Compound `CCCCN(c1cccc(-c2ccc(C)cc2)c1C)S(=O)(=O)c1ccc(OC(C)C(=O)O)c(C)c1C` (stereo not drawn) has an IC50 [1] of 79.4 nM, an IC50 [2] of 15800 nM and an EC50 [4] of 31.6 nM.
